Entries after “also recorded” stand apart in the source; their conditions may differ.
Experiments:
TGF-β signaling = experiment: F11 SBE-SEAP reporter cell assay; type: cell-based, mouse; conditions: F11 SBE-SEAP reporter cell line
Source text: In another aspect, methods are provided for treating or preventing the progression of a disease or condition characterized by a reduction in TGF-β signaling. One category of such diseases or conditions is neurodegenerative disorders. One example is Alzheimer's disease (AD), or another disease characterized by the deposition of amyloid plaques and overall accumulation of Aβ in the brain. Experiments performed in support of the present compositions and methods are described, below. • TGF-β reporter gene and cells for screening compounds: An in vitro screening method was developed to identify small-molecule chemical compounds with TGF-β1-like bioactivity. The method utilized a fusion gene consisting of the luciferase or secreted alkaline phosphatase (SEAP) reporter gene under control of the TGF-β responsive Smad-binding element (SBE) minimal promoter sequence, as shown in FIGS. 1A and 1B. To screen for compounds that mimic TGF-β bioactivity, reporter cell lines were prepared by stably-integrating SBE-SEAP into C6 astrocytoma cells, a primary astrocyte line derived from tgfb1^−/− mice, a mouse embryonic fibroblast cell line derived from tgfb1^−/− mice (MFB-F11), and NG108-15 neuroblastoma cells. Such cell lines remained stable for at least 20 passages. Use of a tgfb1^−/− genetic background avoids interference by the […] tgfb1 gene. • Initial compound screening: A library with 5,000 chemically diverse small molecules (average Mr 200 Da) was obtained from Comgenex LLC (South San Francisco, Calif.). […]
The compounds were all tested in the F11 cell activity assay (fibroblast stably transfected with SBE-SEAP construct). […] Compounds with promising activity were evaluated using tier 1 assays such as permeability assays to measure blood-brain barrier transport, metabolic stability assays, and solubility assays. […]

hippocampal neurons = experiment: Aβ-induced neuritic dystrophy in primary hippocampal neurons; type: cell-based, mouse; conditions: for average numbers of dystrophic neurites per neuron: 21-22 DIV
Protocol: Primary hippocampal neurons isolated from E16 CF1 embryos were aged for 6-7 days or 21-22 days, then challenged with 5 μM oligomeric Aβ in the presence or absence of compounds, and assayed for neurotoxicity (cell survival as above) or neuritic dystrophy, respectively. For quantification of neuritic dystrophy, fixed cells were immune-stained with a MAP-2 monoclonal antibody to label dendrites.
Primary hippocampal neurons were isolated from E16 CF1 embryos. Twenty-four-well culture plates were coated with 10 μg/ml poly-L-lysine. Cells were seeded overnight at a density of 30,000 cells/well in DMEM/F-12 medium supplemented with 10% FBS and penicillin/streptomycin, and subsequently maintained in Neurobasal medium containing 2% B27 supplement. Cells were aged for 6-7 days or 21-22 days, then challenged with 5 μM Aβ in the presence or absence of compounds, and assayed for neurotoxicity or neuritic dystrophy, respectively. Cells were treated for 72 h for neurotoxicity assay and 48 h for neuritic dystrophy assay. At the end of treatment, an equal volume of 4% PFA was added, plates incubated at room temperature for 15 min and then washed three times with DPBS. Cells were kept in the last wash of DPBS at 4° C. until being counted or stained.
For quantification of neuritic dystrophy, fixed cells were immunostained with a MAP-2 monoclonal antibody (Sigma-Aldrich). […] MAP2 positive dendrites were observed under an inverted fluorescence microscope (Olympus). […] To quantify neurite curvature, an established method was modified for assessment of neurite curvature. Neurite tracks were digitized and approximated by a series of connected line segments using ImageJ (NIH). The angle of each segment was determined using a Sigmaplot macro, and the results were averaged to give the ‘mean differential curvature’. This parameter reflects the degree of neurite curvature with an increasing value indicating increased curvature. Neurite counting and quantification were performed in randomly selected fields (5 fields/well). All quantitative assessments were done by investigators blinded with respect to treatment conditions.

female FVB mice = experiment: Dose escalation and 14-day MTD study in female FVB mice; type: in vivo; conditions: for hematology parameters / survival: repeat dose study; for clinical chemistry: all treatment groups; for single-dose level at which all animals survived to 48 h: female, FVB, mouse, in vivo; for survival: high dose 75 mg/kg
Protocol: In Vivo Range Finding Toxicity Studies in Mice and Rats: Dose escalation and 14-day MTD study of SRI-011381 and SRI-011382 in female FVB mice: The objectives of this study were to determine the maximum tolerated dose (MTD) and a no observable adverse effect level (NOAEL) in female FVB mice following a daily oral dose administration for 14 consecutive days. An initial dose escalation was performed with intraperitoneal (ip), oral (po), and intravenous (iv) dose routes for a single-dose MTD of SRI-011381 and SRI-011382.
Subsequently, three dose levels (10, 30, and 75 mg/kg) and a vehicle control group were used in the 14-day oral dose administration to determine the MTD and NOAEL based on changes in bodyweight, clinical observations, serum chemistry, hematology and gross organ physiology in 5 female mice per treatment group.
The objectives of this study were to determine maximum tolerated dose (MTD) and a no observable adverse effect level (NOAEL) in female FVB mice following a daily oral dose administration for 14 consecutive days. After a dose escalation single dose study with doses up to 400 mg/kg, three dose levels were selected for the repeat dose study, 10, 30 and 75 mg/kg, administered […]. The MTD is the maximum dose administered that results in less than 10% body weight loss compared to controls and no other dose limiting adverse effects (e.g. clinical pathology).

| Structure (SMILES) | activity in the reporter cell assay (TGF-β signaling) | activity in the reporter cell assay (TGF-β signaling; listed as 381) | average numbers of dystrophic neurites per neuron (hippocampal neurons; 5 μM Aβ, 48 h) | hematology parameters (female FVB mice; 10 mg/kg) | absolute WBCs (female FVB mice; 30 mg/kg, 14 days) | hematology parameters (female FVB mice; 30 mg/kg) | hematology parameters (RBCs, hematocrit, hemoglobin) (female FVB mice; 75 mg/kg (high dose), 14 days) | clinical signs (female FVB mice; 75 mg/kg, 14 days) | neutrophils (% and absolute) (female FVB mice; 75 mg/kg, 14 days) | reticulocytes (female FVB mice; 75 mg/kg, 14 days) | body weight or body weight change (female FVB mice; 10, 30, 75 mg/kg, 14 days, relative to controls) | lymphocytes (% and absolute) (female FVB mice; 30 and 75 mg/kg, 14 days) | clinical chemistry (female FVB mice; 14 days) | single-dose level at which all animals survived to 48 h (female FVB mice; ip) | single-dose level at which all animals survived to 48 h (female FVB mice; iv) [mg/kg] | single-dose level at which all animals survived to 48 h (female FVB mice; po) [mg/kg] | survival (female FVB mice) | clinical observations (female FVB mice; two lower dose groups (10, 30 mg/kg), 14 days) | Aβ-induced increase in neurite curvature (mean differential curvature) (hippocampal neurons) | Aβ-induced tortuosity (hippocampal neurons; 3 μM compound, 5 μM Aβ, 48 h) |
| --- | --- | --- | --- | --- | --- | --- | --- | --- | --- | --- | --- | --- | --- | --- | --- | --- | --- | --- | --- | --- |
| O=C(NC1CCCCC1)N(Cc1ccccc1)CC1CCNCC1 [SRI-011381, 1-Benzyl-3-cyclohexyl-1-(piperidin-4-ylmethyl)urea] | showed activity | activates TGF-β signaling in reporter cell line | markedly reduced | no significant differences relative to controls | significantly decreased | minor changes in WBCs only | reductions in red blood cells (RBCs), hematocrit and hemoglobin; also recorded: RBCs, hematocrit and hemoglobin were all significantly reduced; also recorded: significantly reduced hematocrit, hemoglobin, RBCs, and WBCs | hunched posture, hypoactivity and ruffled fur | increased | significantly elevated | no significant differences in body weight or body weight change | decreased | no significant changes in clinical chemistry | up to 100 mg/kg | ≤ 15 | ≤ 200 | survived to the scheduled sacrifice on Day 15 | appeared normal |  |  |
| O=C(NC1CCCCC1)N(C/C=C/c1ccc(F)cc1)CC1CCNCC1 [SRI-011382] | superior activity |  | markedly reduced |  |  | reduced hematocrit, hemoglobin, RBCs, and WBCs |  | hunched posture, hypoactivity and ruffled fur |  |  |  |  | no significant changes |  |  |  | lethality to the entire treatment group |  | prevented | markedly reduced |
